Reference: ChEMBL document CHEMBL1121734, “New synthesis of N-[4-[[(2-amino-4(3H)-oxopyrido[3,2-d]pyrimidin-6-yl)methyl]amino]benzoyl]-L-glutamic acid (8-deazafolic acid) and the preparation of some 5,6,7,8-tetrahydro derivatives” (1981)

What was measured:
[1] = system: Epidermoid carcinoma cell line; test: Concentration required for inhibition of colony formation (cytotoxicity) against human epidermoid carcinoma cell number 2; format: functional; details: read-out: ED50 (the source's name)
[2] = biological target: T1, Dihydrofolate reductase (Bos taurus) (UniProt P00376)
T1 sequence (whole entry): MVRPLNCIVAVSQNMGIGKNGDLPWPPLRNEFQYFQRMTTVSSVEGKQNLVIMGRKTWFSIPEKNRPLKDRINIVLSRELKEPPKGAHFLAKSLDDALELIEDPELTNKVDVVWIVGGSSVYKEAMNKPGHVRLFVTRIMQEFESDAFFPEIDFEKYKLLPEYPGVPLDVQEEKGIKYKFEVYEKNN
Description: Inhibition of bovine dihydrofolate reductase

Row | ID50 [2] [µM] | SMILES | EC50 [1] [µM]
1 |  | CN(Cc1cnc2nc(N)nc(N)c2n1)c1ccc(C(=O)N[C@@H](CCC(=O)O)C(=O)O)cc1 [METHOTREXATE] | 0.001
2 |  | Nc1nc(O)c2nc(C(=O)Nc3ccc(C(=O)NC(CCC(=O)O)C(=O)O)cc3)ccc2n1 (configuration not stated) | 100
3 |  | Nc1nc(O)c2c(n1)CCC(CN(C=O)c1ccc(C(=O)NC(CCC(=O)O)C(=O)O)cc1)N2 (configuration not stated) | 28
4 |  | Nc1nc(O)c2nc(CNc3ccc(C(=O)NC(CCC(=O)O)C(=O)O)cc3)ccc2n1 (configuration not stated) | 23
5 |  | Nc1nc(O)c2nc(CN(C=O)c3ccc(C(=O)NC(CCC(=O)O)C(=O)O)cc3)ccc2n1 (configuration not stated) | 32
6 | 4.6 | Nc1nc(O)c2c(n1)CCC1CN(c3ccc(C(=O)NC(CCC(=O)O)C(=O)O)cc3)C=[N+]21 (configuration not stated) | 8
